# Measurements: patent publication US20060110456A1, “Method for biocidal and/or biostatic treatment and compositions therefor” (NATIONAL UNIVERSITY OF SINGAPORE, priority 2004, published 2006)
# System: marine bacteria (26 strains)
# Test: Disk inhibition assay
# Format: cell-based, marine bacteria isolated from Singapore fouling communities
# Conditions: for zone of inhibition at 2 µg/disc: 2 μg per disc; for zone of inhibition at 10 µg/disc: 10 μg per disc; for zone of inhibition at 5 µg/disc: 5 μg per disc; for zone of inhibition at 15 µg/disc: 15 μg per disc
# Experimental: Preparation of Drugs onto Disks for Assay
# The non-antibiotic pharmaceuticals of Table 1 were prepared in the following way. A tablet with a known amount of active ingredient (as stated in the product information) was ground in a mortar and pestle and suspended in sterile deionized water to a concentration of 2 mg ml^−1. These samples were sonicated for at least 1 min. […] The two halves of the capsule were separated and the powder released straight into a bottle and suitable amount of water added to make a concentration of 2 mg ml^−1.
# As a comparison to the pharmaceuticals, to determine the susceptibility of the bacterial isolates to conventional antibiotics, commercially available antibiotic discs were used. Antibiotic discs (Oxoid® CT series) containing Ampicillin [Amp] (2 and 10 μg), Erythromycin [Ery] (5 and 15 μg), Streptomycin [Str] (10 and 25 μg) and Tetracycline [Tet] (5 and 30 μg) were placed on lawns of the bacterial strains inoculated as described below.
# Sterile swabs dipped into the cultures were used to inoculate Marine Agar plates with a bacterial lawn by smearing the culture over the surface. After inoculating the plates, discs with antibiotics, pharmaceuticals or control blanks were placed on each plate. Each concentration of antibiotic or pharmaceutical was tested with three replicates on three separate occasions. After the disks were placed on the agar surface, plates were incubated overnight in the dark at 30° C. After incubation, plates were examined for zones of inhibition or clearing around control and treated disks. The diameter of any zone of clearing or inhibition was measured using Vernier calipers.
# The assay was repeated three times with three replicates for each concentration used, each time.
smiles,measurement,setting,value
"CC1(C)S[C@@H]2[C@H](NC(=O)[C@H](N)c3ccccc3)C(=O)N2[C@H]1C(=O)O [Amp, ampicillin]",zone of inhibition at 2 µg/disc,strain 1 (Rhodovulum),10 to 19 mm
same,zone of inhibition at 10 µg/disc,strain 1 (Rhodovulum),20 to 29 mm
same,zone of inhibition at 2 µg/disc,strain 2 (Erythrobacter),< 6 mm
same,zone of inhibition at 10 µg/disc,strain 2 (Erythrobacter),10 to 19 mm
same,zone of inhibition at 2 µg/disc,strain 3 (Erythrobacter),< 6 mm
same,zone of inhibition at 10 µg/disc,strain 3 (Erythrobacter),< 6 mm
same,zone of inhibition at 2 µg/disc,strain 4 (Bacillus),> 40 mm
same,zone of inhibition at 10 µg/disc,strain 4 (Bacillus),> 40 mm
same,zone of inhibition at 2 µg/disc,strain 6 (Vibrio),< 6 mm
same,zone of inhibition at 10 µg/disc,strain 6 (Vibrio),< 6 mm
same,zone of inhibition at 2 µg/disc,strain 7 (Vibrio),6 to 9 mm
same,zone of inhibition at 10 µg/disc,strain 7 (Vibrio),10 to 19 mm
same,zone of inhibition at 2 µg/disc,strain 8 (Bacillus),20 to 29 mm
same,zone of inhibition at 10 µg/disc,strain 8 (Bacillus),30 to 39 mm
same,zone of inhibition at 2 µg/disc,strain 9 (Bacillus),10 to 19 mm
same,zone of inhibition at 10 µg/disc,strain 9 (Bacillus),30 to 39 mm
same,zone of inhibition at 2 µg/disc,strain 10 (Halobacillus),30 to 39 mm
same,zone of inhibition at 10 µg/disc,strain 10 (Halobacillus),> 40 mm
same,zone of inhibition at 2 µg/disc,strain 11 (Pseudomonas),20 to 29 mm
same,zone of inhibition at 10 µg/disc,strain 11 (Pseudomonas),30 to 39 mm
same,zone of inhibition at 2 µg/disc,strain 12 (Gordonia),< 6 mm
same,zone of inhibition at 10 µg/disc,strain 12 (Gordonia),< 6 mm
same,zone of inhibition at 2 µg/disc,strain 13 (Bacillus),10 to 19 mm
same,zone of inhibition at 10 µg/disc,strain 13 (Bacillus),10 to 19 mm
same,zone of inhibition at 2 µg/disc,strain 14 (Vibrio),10 to 19 mm
same,zone of inhibition at 10 µg/disc,strain 14 (Vibrio),20 to 29 mm
same,zone of inhibition at 2 µg/disc,strain 16 (Pseudoalteromonas),6 to 9 mm
same,zone of inhibition at 10 µg/disc,strain 16 (Pseudoalteromonas),10 to 19 mm
same,zone of inhibition at 2 µg/disc,strain 17 (Gordonia),< 6 mm
same,zone of inhibition at 10 µg/disc,strain 17 (Gordonia),< 6 mm
same,zone of inhibition at 2 µg/disc,strain 18 (Microbacterium),20 to 29 mm
same,zone of inhibition at 10 µg/disc,strain 18 (Microbacterium),20 to 29 mm
same,zone of inhibition at 2 µg/disc,strain 19 (Erythrobacter),20 to 29 mm
same,zone of inhibition at 10 µg/disc,strain 19 (Erythrobacter),20 to 29 mm
same,zone of inhibition at 2 µg/disc,strain 20,< 6 mm
same,zone of inhibition at 10 µg/disc,strain 20,20 to 29 mm
same,zone of inhibition at 2 µg/disc,strain 21,< 6 mm
same,zone of inhibition at 10 µg/disc,strain 21,< 6 mm
same,zone of inhibition at 2 µg/disc,strain 22,10 to 19 mm
same,zone of inhibition at 10 µg/disc,strain 22,10 to 19 mm
same,zone of inhibition at 2 µg/disc,strain 24,30 to 39 mm
same,zone of inhibition at 10 µg/disc,strain 24,> 40 mm
same,zone of inhibition at 2 µg/disc,strain 26,10 to 19 mm
same,zone of inhibition at 10 µg/disc,strain 26,10 to 19 mm
same,zone of inhibition at 2 µg/disc,strain 27,20 to 29 mm
same,zone of inhibition at 10 µg/disc,strain 27,30 to 39 mm
same,zone of inhibition at 2 µg/disc,strain 28,6 to 9 mm
same,zone of inhibition at 10 µg/disc,strain 28,10 to 19 mm
same,zone of inhibition at 2 µg/disc,strain 29,30 to 39 mm
same,zone of inhibition at 10 µg/disc,strain 29,30 to 39 mm
same,zone of inhibition at 2 µg/disc,strain 30,30 to 39 mm
same,zone of inhibition at 10 µg/disc,strain 30,20 to 29 mm
"CC[C@H]1OC(=O)[C@H](C)[C@@H](O[C@H]2C[C@@](C)(OC)[C@@H](O)[C@H](C)O2)[C@H](C)[C@@H](O[C@@H]2O[C@H](C)C[C@H](N(C)C)[C@H]2O)[C@](C)(O)C[C@@H](C)C(=O)[C@H](C)[C@@H](O)[C@]1(C)O [Ery, erythromycin]",Effectiveness of antibiotics against strains of marine bacteria,"commercial antibiotic discs, in words",effective against most of the strains of marine bacteria
same,zone of inhibition at 5 µg/disc,strain 1 (Rhodovulum),< 6 mm
same,zone of inhibition at 15 µg/disc,strain 1 (Rhodovulum),< 6 mm
same,zone of inhibition at 5 µg/disc,strain 2 (Erythrobacter),< 6 mm
same,zone of inhibition at 15 µg/disc,strain 2 (Erythrobacter),20 to 29 mm
same,zone of inhibition at 5 µg/disc,strain 3 (Erythrobacter),10 to 19 mm
same,zone of inhibition at 15 µg/disc,strain 3 (Erythrobacter),20 to 29 mm
same,zone of inhibition at 5 µg/disc,strain 4 (Bacillus),> 40 mm
same,zone of inhibition at 15 µg/disc,strain 4 (Bacillus),30 to 39 mm
same,zone of inhibition at 5 µg/disc,strain 6 (Vibrio),< 6 mm
same,zone of inhibition at 15 µg/disc,strain 6 (Vibrio),10 to 19 mm
same,zone of inhibition at 5 µg/disc,strain 7 (Vibrio),10 to 19 mm
same,zone of inhibition at 15 µg/disc,strain 7 (Vibrio),10 to 19 mm
same,zone of inhibition at 5 µg/disc,strain 8 (Bacillus),20 to 29 mm
same,zone of inhibition at 15 µg/disc,strain 8 (Bacillus),30 to 39 mm
same,zone of inhibition at 5 µg/disc,strain 9 (Bacillus),30 to 39 mm
same,zone of inhibition at 15 µg/disc,strain 9 (Bacillus),30 to 39 mm
same,zone of inhibition at 5 µg/disc,strain 10 (Halobacillus),30 to 39 mm
same,zone of inhibition at 15 µg/disc,strain 10 (Halobacillus),> 40 mm
same,zone of inhibition at 5 µg/disc,strain 11 (Pseudomonas),20 to 29 mm
same,zone of inhibition at 15 µg/disc,strain 11 (Pseudomonas),20 to 29 mm
same,zone of inhibition at 5 µg/disc,strain 12 (Gordonia),< 6 mm
same,zone of inhibition at 15 µg/disc,strain 12 (Gordonia),10 to 19 mm
same,zone of inhibition at 5 µg/disc,strain 13 (Bacillus),20 to 29 mm
same,zone of inhibition at 15 µg/disc,strain 13 (Bacillus),20 to 29 mm
same,zone of inhibition at 5 µg/disc,strain 14 (Vibrio),< 6 mm
same,zone of inhibition at 15 µg/disc,strain 14 (Vibrio),10 to 19 mm
same,zone of inhibition at 5 µg/disc,strain 16 (Pseudoalteromonas),10 to 19 mm
same,zone of inhibition at 15 µg/disc,strain 16 (Pseudoalteromonas),6 to 9 mm
same,zone of inhibition at 5 µg/disc,strain 17 (Gordonia),> 40 mm
same,zone of inhibition at 15 µg/disc,strain 17 (Gordonia),> 40 mm
same,zone of inhibition at 5 µg/disc,strain 18 (Microbacterium),6 to 9 mm
same,zone of inhibition at 15 µg/disc,strain 18 (Microbacterium),10 to 19 mm
same,zone of inhibition at 5 µg/disc,strain 19 (Erythrobacter),20 to 29 mm
same,zone of inhibition at 15 µg/disc,strain 19 (Erythrobacter),20 to 29 mm
same,zone of inhibition at 5 µg/disc,strain 20,10 to 19 mm
same,zone of inhibition at 15 µg/disc,strain 20,20 to 29 mm
same,zone of inhibition at 5 µg/disc,strain 21,20 to 29 mm
same,zone of inhibition at 15 µg/disc,strain 21,20 to 29 mm
same,zone of inhibition at 5 µg/disc,strain 22,10 to 19 mm
same,zone of inhibition at 15 µg/disc,strain 22,30 to 39 mm
same,zone of inhibition at 5 µg/disc,strain 24,20 to 29 mm
same,zone of inhibition at 15 µg/disc,strain 24,20 to 29 mm
same,zone of inhibition at 5 µg/disc,strain 26,20 to 29 mm
same,zone of inhibition at 15 µg/disc,strain 26,20 to 29 mm
same,zone of inhibition at 5 µg/disc,strain 27,20 to 29 mm
same,zone of inhibition at 15 µg/disc,strain 27,20 to 29 mm
same,zone of inhibition at 5 µg/disc,strain 28,20 to 29 mm
same,zone of inhibition at 15 µg/disc,strain 28,20 to 29 mm
same,zone of inhibition at 5 µg/disc,strain 29,30 to 39 mm
same,zone of inhibition at 15 µg/disc,strain 29,20 to 29 mm
same,zone of inhibition at 5 µg/disc,strain 30,20 to 29 mm
same,zone of inhibition at 15 µg/disc,strain 30,20 to 29 mm
